Reference: patent US20030013660A1, “Dioxolane analogs for improved inter-cellular delivery” (Shire BioChem Inc., priority 2000, published 2003)
Where two headings read alike, the source gives them in different places.

Tests used:
Assay in all cases: 3H-TdR (3H-thymidine) incorporation assay at 72 hr
[1] = tested on: SF-268; type: cell-based, Human
[2] = tested on: H-460; type: cell-based, Human
[3] = tested on: MCF-7; type: cell-based, Human
[4] = tested on: CCRF-CEM; type: cell-based
Experimental: (§1) Table of IC50 Values (μM) for Controls
(§2) Exposition of 24 hr to drug, wash, incubated for another 48 hr (total of 72 hr assay)
(§3) (3H-Thymidine Incorporation Assay)

[5] = tested on: CEM/dCK-; type: cell-based; conditions: for Factor* (Resistance Factor = Ratio of dCK- on Wild-type CCRF-CEM): ratio of IC50 CEM/dCK- to CCRF-CEM, 24 h
Experimental: as §1, §2, §3

[6] = Homo sapiens, SF-268, read-out: IC50 SF-268 24 h, 24 h drug exposure, wash, another 48 hr, 3H-TdR incorporation at 72 hr
[7] = Homo sapiens, NCI-H460, read-out: IC50 H-460 24 h, 24 h drug exposure, wash, another 48 hr, 3H-TdR incorporation at 72 hr
[8] = Homo sapiens, MCF7, read-out: IC50 MCF-7 24 h, 24 h drug exposure, wash, another 48 hr, 3H-TdR incorporation at 72 hr
[9] = Homo sapiens, CCRF-CEM, read-out: IC50 CCRF-CEM 24 h, 24 h drug exposure, wash, another 48 hr, 3H-TdR incorporation at 72 hr
[10] = Homo sapiens, CCRF-CEM, read-out: IC50 CEM/dCK- 24 h, 24 h drug exposure, wash, another 48 hr, deoxycytidine kinase-deficient CCRF-CEM
[11] = Homo sapiens, SF-268, read-out: IC50 SF-268 24 h
[12] = Homo sapiens, NCI-H460, read-out: IC50 H-460 24 h
[13] = Homo sapiens, MCF7, read-out: IC50 MCF-7 24 h
[14] = Homo sapiens, CCRF-CEM, read-out: IC50 CCRF-CEM 24 h
[15] = Homo sapiens, CCRF-CEM, read-out: IC50 CEM/dCK- 24 h

IC50 [1, 6] | IC50 [2, 7] | IC50 [3, 8] | IC50 [4, 9] | IC50 [5, 10] | SMILES | Factor* (Resistance Factor = Ratio of dCK- on Wild-type CCRF-CEM) [5] | IC50 [1, 11] | IC50 [2, 12] | IC50 [3, 13] | IC50 [4, 14] | IC50 [5, 15] | IC50 ([1]; read-out: IC50 SF-268 24 h, 24 h drug exposure, wash, another 48 hr, 3H-TdR incorporation at 72 hr, HYDROCHLORIDE) | IC50 ([2]; read-out: IC50 H-460 24 h, 24 h drug exposure, wash, another 48 hr, 3H-TdR incorporation at 72 hr, HYDROCHLORIDE) | IC50 ([3]; read-out: IC50 MCF-7 24 h, 24 h drug exposure, wash, another 48 hr, 3H-TdR incorporation at 72 hr, HYDROCHLORIDE) | IC50 ([4]; read-out: IC50 CCRF-CEM 24 h, 24 h drug exposure, wash, another 48 hr, 3H-TdR incorporation at 72 hr, HYDROCHLORIDE) | IC50 ([5]; read-out: IC50 CEM/dCK- 24 h, 24 h drug exposure, wash, another 48 hr, deoxycytidine kinase-deficient CCRF-CEM, HYDROCHLORIDE)
610 nM | 140 nM | 190 nM | 88 nM | 82000 nM | Cl.Nc1ccn([C@@H]2CO[C@H](COC(=O)Oc3ccc([N+](=O)[O-])cc3)O2)c(=O)n1 [Compound 88, 1-[2-(4-NITRO- PHENOXYCARBONYLOXYMETHY L)-[1,3]DIOXOLAN-4-YL]- 2-OXO-1,2-DIHYDRO- PYRIMIDIN-4-YL- AMMONIUM; CHLORIDE] | 931 | – | – | – | – | – | – | – | – | – | –
4200 nM | 2100 nM | 1600 nM | 1300 nM | > 100000 nM | CC(OC[C@H]1OC[C@@H](n2ccc(N)nc2=O)O1)OC1CCCCC1 (stereo partly shown) [Compound 92, 4-AMINO-1-[2-(1- CYCLOHEXYLOXY- ETHOXYMETHYL)- [1,3]DIOXOLAN-4-YL]-1H- PYRIMIDIN-2-ONE] | 77 | – | – | – | – | – | – | – | – | – | –
2100 nM | 330 nM | 410 nM | 360 nM | 16000 nM | O=C(Nc1ccn([C@@H]2CO[C@H](COC(=O)C34CC5CC(CC(C5)C3)C4)O2)c(=O)n1)OCc1ccccc1 [Compound 101, ADAMANTANE-1-CARBOXYLIC ACID 4-(4- BENZYLOXYCARBONYLAMINO- 2-OXO-2H-PYRIMIDIN-1- YL)-[1,3]DIOXOLAN-2- YLMETHYL ESTER] | 44 | – | – | – | – | – | – | – | – | – | –
1000 nM | 190 nM | 1700 nM | 410 nM | 11000 nM | O=C(Nc1ccn([C@@H]2CO[C@H](COC(=O)C34CC5CC(CC(C5)C3)C4)O2)c(=O)n1)C12CC3CC(CC(C3)C1)C2 [Compound 102, ADAMANTANE-1-CARBOXYLIC ACID 4-{4-[(ADAMANTANE- 1-CARBONYL)-AMINO]-2- OXO-2H-PYRIMIDIN-1-YL}- [1,3]DIOXOLAN-2- YLMETHYL ESTER] | 27 | – | – | – | – | – | – | – | – | – | –
– | – | – | – | – | O=C(Nc1ccn([C@@H]2CO[C@H](COC(=O)Oc3ccc(Cl)cc3)O2)c(=O)n1)Oc1ccc(Cl)cc1 [Compound 103] | 4,545 | 63 nM | 52 nM | 18 nM | 11 nM | 50000 nM | – | – | – | – | –
– | – | – | – | – | O=C(Nc1ccn([C@@H]2CO[C@H](CO)O2)c(=O)n1)Oc1ccc(Cl)cc1.O=C(O)C(F)(F)F [Compound 104, [1-(2-HYDROXYMETHYL- [1,3]DIOXOLAN-4-YL)-2- OXO-1,2-DIHYDRO- […]-4-YL]- CARBAMIC ACID 4-CHLORO- PHENYL ESTER TRIFLUOROACETATE SALT] | >476 | 470 nM | 270 nM | 470 nM | 210 nM | > 100000 nM | – | – | – | – | –
– | – | – | – | – | CC(C(=O)OC[C@H]1OC[C@@H](n2ccc(N)nc2=O)O1)c1ccccc1.Cl (stereo partly shown) [Compound 106, HYDROCHLORIDE] | – | – | – | – | – | – | 95 nM | 14 nM | 37 nM | 10 nM | 46000 nM
3800 nM | 1800 nM | 27000 nM | 3400 nM | > 100000 nM | O=C(NCc1ccccc1)Nc1ccn([C@@H]2CO[C@H](CO)O2)c(=O)n1 [Compound 108, 1-BENZYL-3-[1-(2- HYDROXYMETHYL- [1,3]DIOXOLAN-4-YL)-2- OXO-1,2-DIHYDRO- PYRIMIDIN-4-YL]-UREA] | >29 | – | – | – | – | – | – | – | – | – | –
4800 nM | 2600 nM | 31000 nM | 1000 nM | > 100000 nM | O=C(NCc1ccccc1)Nc1ccn([C@@H]2CO[C@H](COC(=O)NCc3ccccc3)O2)c(=O)n1 [Compound 109, BENZYL-CARBAMIC ACID 4- [4-(3-BENZYL-UREIDO)-2- OXO-2#H!-PYRIMIDIN-1- YL]-[1,3]DIOXOLAN-2- YLMETHYL ESTER] | >100 | – | – | – | – | – | – | – | – | – | –
– | – | – | – | – | COc1cc2c(cc1OC)C(=O)/C(=C/c1cc(C)c(OC(=O)OC[C@H]3OC[C@@H](n4ccc(N)nc4=O)O3)c(C)c1)C2 [Compound 112] | 10 | 6.7 nM | 11 nM | 16 nM | 5.8 nM | – | – | – | – | – | –
1100 nM | 240 nM | 480 nM | 60 nM | > 100000 nM | COC1(OC[C@H]2OC[C@@H](n3ccc(N)nc3=O)O2)CCCCC1 [Compound 113, 4-AMINO-1-[2-(1- METHOXY- CYCLOHEXYLOXYMETHYL)- [1,3]DIOXOLAN-4-YL]-1H- PYRIMIDIN-2-ONE] | >1667 | – | – | – | – | – | – | – | – | – | –
620 nM | 380 nM | 150 nM | 200 nM | > 100000 nM | CC(C)(C)OC(=O)N(CCCCC(=O)Nc1ccn([C@@H]2CO[C@H](CO)O2)c(=O)n1)Cc1ccccc1 [Compound 115, BENZYL-{4-[1-(2- HYDROXYMETHYL- [1,3]DIOXOLAN-4-YL)-2- OXO-1,2-DIHYDRO- PYRIMIDIN-4- YLCARBAMOYL]-BUTYL}- CARBAMIC ACID TERT!- BUTYL ESTER] | >500 | – | – | – | – | – | – | – | – | – | –
2500 nM | 1400 nM | 110 nM | 380 nM | > 100000 nM | COc1ccc(OC(=O)OC[C@H]2OC[C@@H](n3ccc(NC(=O)OCc4ccccc4)nc3=O)O2)cc1 [Compound 116, CARBONIC ACID 4-(4- BENZYLOXYCARBONYLAMINO- 2-OXO-2H-PYRIMIDIN-1- YL)-[1,3]DIOXOLAN-2- YLMETHYL ESTER 4- METHOXY-PHENYL ESTER] | >263 | – | – | – | – | – | – | – | – | – | –

SMILES | IC50 [1, 6] | IC50 [2, 7] | IC50 [3, 8] | IC50 [4, 9] | IC50 [5, 10] | Factor* (Resistance Factor = Ratio of dCK- on Wild-type CCRF-CEM) [5] | IC50 [1, 11] | IC50 [2, 12] | IC50 [3, 13] | IC50 [4, 14] | IC50 [5, 15] | IC50 ([1]; read-out: IC50 SF-268 24 h, 24 h drug exposure, wash, another 48 hr, 3H-TdR incorporation at 72 hr, HYDROCHLORIDE) | IC50 ([2]; read-out: IC50 H-460 24 h, 24 h drug exposure, wash, another 48 hr, 3H-TdR incorporation at 72 hr, HYDROCHLORIDE) | IC50 ([3]; read-out: IC50 MCF-7 24 h, 24 h drug exposure, wash, another 48 hr, 3H-TdR incorporation at 72 hr, HYDROCHLORIDE) | IC50 ([4]; read-out: IC50 CCRF-CEM 24 h, 24 h drug exposure, wash, another 48 hr, 3H-TdR incorporation at 72 hr, HYDROCHLORIDE) | IC50 ([5]; read-out: IC50 CEM/dCK- 24 h, 24 h drug exposure, wash, another 48 hr, deoxycytidine kinase-deficient CCRF-CEM, HYDROCHLORIDE)
O=C(O)C(F)(F)F.O=c1nc(NC/C=C/c2ccccc2)ccn1[C@@H]1CO[C@H](CO)O1 [Compound 89, 1-(2-HYDROXYMETHYL- [1,3]DIOXOLAN-4-YL)-4- (3-CINNAMYL)-1H- PYRIMIDIN-2-ONE TRIFLUORO-ACETATE SALT] | 11000 nM | 3800 nM | 220 nM | 2500 nM | > 100000 nM | 40 | – | – | – | – | – | – | – | – | – | –
Nc1ccn([C@@H]2CO[C@H](COC/C=C/c3ccccc3)O2)c(=O)n1.O=C(O)C(F)(F)F [Compound 90, 4-AMINO-1-[2-(3- CINNAMYLOXYMETHYL)- [1,3]DIOXOLAN-4-YL]-1H- PYRIMIDIN-2-ONE TRIFLUOROACETATE SALT] | > 100000 nM | 95000 nM | 61000 nM | 65000 nM | > 100000 nM | 1.5 | – | – | – | – | – | – | – | – | – | –
Nc1ccn([C@@H]2CO[C@H](COC(=O)Oc3ccc(Cl)cc3)O2)c(=O)n1.O=C(O)C(F)(F)F [Compound 105, CARBONIC ACID 4-(4- AMINO-2-OXO-2H- PYRIMIDIN-1-YL)- [1,3]DIOXOLAN-2- YLMETHYL ESTER 4- CHLORO-PHENYL ESTER TRIFLUOROACETATE SALT] | 71 nM | 80 nM | 68 nM | 33 nM | 79000 nM | 2393 | – | – | – | – | – | – | – | – | – | –
CC(C)(C)OC(=O)N(CCCCC(=O)OC[C@H]1OC[C@@H](n2ccc(N)nc2=O)O1)Cc1ccccc1 [Compound 111, 5-(BENZYL-TERT- BUTOXYCARBONYL-AMINO)- PENTANOIC ACID 4-(4- AMINO-2-OXO-2H- PYRIMIDIN-1-YL)- [1,3]DIOXOLAN-2- YLMETHYL ESTER] | 2.1 nM | 0.13 nM | 0.26 nM | 0.2 nM | 2600 nM | 13000 | – | – | – | – | – | – | – | – | – | –
CC(C)(C)OC(=O)N(CCCCC(=O)Nc1ccn([C@@H]2CO[C@H](COC(=O)CCCCN(Cc3ccccc3)C(=O)OC(C)(C)C)O2)c(=O)n1)Cc1ccccc1 [Compound 114, 5-(BENZYL-TERT- BUTOXYCARBONYL-AMINO)- PENTANOIC ACID 4-{4-[5- (BENZYL-TERT- BUTOXYCARBONYL-AMINO)- PENTANOYLAMINO]-2-OXO- 2H!PYRIMIDIN-1-YL}- [1,3]DIOXOLAN-2- YLMETHYL ESTER] | 41 nM | 66 nM | 17 nM | 16 nM | 8000 nM | 500 | – | – | – | – | – | – | – | – | – | –
